Source: PubChem BioAssay (NCI)
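Exposure lasted 48 hours, with cells grown in 96-well plates and compounds tested at five concentrations. Definition used: TGI = concentration required for complete inhibition of growth.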

Tests used:
Assay in all cases: NCI tumour cell line growth inhibition, 48 h
MCF7 breast = system: MCF7 breast
SN12C renal = system: SN12C renal
786-0 renal = system: 786-0 renal
UO-31 renal = system: UO-31 renal
A549 NSCLC = system: A549 NSCLC
SK-MEL-2 melanoma = system: SK-MEL-2 melanoma
NCI/ADR-RES ovarian = system: NCI/ADR-RES ovarian
OVCAR-8 ovarian = system: OVCAR-8 ovarian
MDA-MB-435 = system: MDA-MB-435
SF-539 CNS = system: SF-539 CNS
SW-620 colon = system: SW-620 colon
BT-549 breast = system: BT-549 breast
ACHN renal = system: ACHN renal
HCC-2998 colon = system: HCC-2998 colon
T-47D breast = system: T-47D breast
HCT-15 colon = system: HCT-15 colon
COLO 205 colon = system: COLO 205 colon
K-562 leukemia = system: K-562 leukemia
LOX IMVI melanoma = system: LOX IMVI melanoma
MDA-N = system: MDA-N
KM12 colon = system: KM12 colon
DU-145 prostate = system: DU-145 prostate
OVCAR-5 ovarian = system: OVCAR-5 ovarian
PC-3 prostate = system: PC-3 prostate
HCT-116 colon = system: HCT-116 colon
SK-OV-3 ovarian = system: SK-OV-3 ovarian
M14 melanoma = system: M14 melanoma
SF-295 CNS = system: SF-295 CNS
CCRF-CEM leukemia = system: CCRF-CEM leukemia
TK-10 renal = system: TK-10 renal
UACC-257 melanoma = system: UACC-257 melanoma
HT29 colon = system: HT29 colon
MOLT-4 leukemia = system: MOLT-4 leukemia
UACC-62 melanoma = system: UACC-62 melanoma
MALME-3M melanoma = system: MALME-3M melanoma
MDA-MB-231 breast = system: MDA-MB-231 breast
U251 CNS = system: U251 CNS
NCI-H23 lung = system: NCI-H23 lung
RXF 393 renal = system: RXF 393 renal
SNB-19 CNS = system: SNB-19 CNS
SK-MEL-28 melanoma = system: SK-MEL-28 melanoma
NCI-H460 lung = system: NCI-H460 lung
IGROV1 ovarian = system: IGROV1 ovarian
NCI-H522 lung = system: NCI-H522 lung
HOP-92 NSCLC = system: HOP-92 NSCLC
A498 renal = system: A498 renal
HL-60(TB) leukemia = system: HL-60(TB) leukemia
RPMI-8226 leukemia = system: RPMI-8226 leukemia
OVCAR-4 ovarian = system: OVCAR-4 ovarian
OVCAR-3 ovarian = system: OVCAR-3 ovarian
EKVX NSCLC = system: EKVX NSCLC
HOP-62 NSCLC = system: HOP-62 NSCLC
SR leukemia = system: SR leukemia
CAKI-1 renal = system: CAKI-1 renal
HS 578T breast = system: HS 578T breast
SF-268 CNS = system: SF-268 CNS
NCI-H226 lung = system: NCI-H226 lung
SK-MEL-5 melanoma = system: SK-MEL-5 melanoma
SNB-75 CNS = system: SNB-75 CNS

In the case of `Cc1[nH]c(=O)nc2nc3ccc(Cl)cc3c(N(CCO)CCO)c12`, the TGI (MCF7 breast) is reported as greater than 100 µM, the TGI (SN12C renal) is reported as greater than 100 µM and the TGI (786-0 renal) is reported as greater than 100 µM. The TGI (UO-31 renal) was greater than 100 µM, the TGI (A549 NSCLC) was greater than 100 µM and the TGI (SK-MEL-2 melanoma) was greater than 100 µM. The TGI (NCI/ADR-RES ovarian) was greater than 100 µM, the TGI (OVCAR-8 ovarian) was greater than 100 µM and the TGI (MDA-MB-435) was greater than 100 µM. The TGI (SF-539 CNS) was greater than 100 µM, the TGI (SW-620 colon) was greater than 100 µM and the TGI (BT-549 breast) was greater than 100 µM. For the same compound, the TGI (ACHN renal) was greater than 100 µM, the TGI (HCC-2998 colon) was greater than 100 µM and the TGI (T-47D breast) was greater than 100 µM. For the same compound, the TGI (HCT-15 colon) was greater than 100 µM, the TGI (COLO 205 colon) was greater than 100 µM and the TGI (K-562 leukemia) was greater than 100 µM. For the same compound, the TGI (LOX IMVI melanoma) was greater than 100 µM, the TGI (MDA-N) was greater than 100 µM and the TGI (KM12 colon) was greater than 100 µM. The TGI (DU-145 prostate) was greater than 100 µM, the TGI (OVCAR-5 ovarian) was greater than 100 µM and the TGI (PC-3 prostate) was greater than 100 µM. It also gave a TGI (HCT-116 colon) greater than 100 µM, a TGI (SK-OV-3 ovarian) greater than 100 µM and a TGI (M14 melanoma) greater than 100 µM. For the same compound, the TGI (SF-295 CNS) was greater than 100 µM, the TGI (CCRF-CEM leukemia) was greater than 100 µM and the TGI (TK-10 renal) was greater than 100 µM. The TGI (UACC-257 melanoma) was greater than 100 µM, the TGI (HT29 colon) was greater than 100 µM and the TGI (MOLT-4 leukemia) was greater than 100 µM. It also gave a TGI (UACC-62 melanoma) greater than 100 µM, a TGI (MALME-3M melanoma) greater than 100 µM and a TGI (MDA-MB-231 breast) greater than 100 µM. For the same compound, the TGI (U251 CNS) was greater than 100 µM, the TGI (NCI-H23 lung) was greater than 100 µM and the TGI (RXF 393 renal) was greater than 100 µM. It also gave a TGI (SNB-19 CNS) greater than 100 µM, a TGI (SK-MEL-28 melanoma) greater than 100 µM and a TGI (NCI-H460 lung) greater than 100 µM. The TGI (IGROV1 ovarian) was greater than 100 µM, the TGI (NCI-H522 lung) was 48 µM and the TGI (HOP-92 NSCLC) was greater than 100 µM. It also gave a TGI (A498 renal) greater than 100 µM, a TGI (HL-60(TB) leukemia) greater than 100 µM and a TGI (RPMI-8226 leukemia) greater than 100 µM. The TGI (OVCAR-4 ovarian) was greater than 100 µM, the TGI (OVCAR-3 ovarian) was greater than 100 µM and the TGI (EKVX NSCLC) was greater than 100 µM. The TGI (HOP-62 NSCLC) was greater than 100 µM, the TGI (SR leukemia) was greater than 100 µM and the TGI (CAKI-1 renal) was greater than 100 µM. It also gave a TGI (HS 578T breast) greater than 100 µM, a TGI (SF-268 CNS) greater than 100 µM and a TGI (NCI-H226 lung) greater than 100 µM. For the same compound, the TGI (SK-MEL-5 melanoma) was greater than 100 µM.

For `Clc1ccccc1/C=C/c1ccnc2ccccc12`, the TGI (MCF7 breast) was 26.7 µM, the TGI (SN12C renal) was 30.1 µM and the TGI (786-0 renal) was 29.2 µM. The TGI (UO-31 renal) was 31 µM, the TGI (A549 NSCLC) was 29.9 µM and the TGI (SK-MEL-2 melanoma) was 34.2 µM. The TGI (NCI/ADR-RES ovarian) was 32.9 µM, the TGI (OVCAR-8 ovarian) was 36.3 µM and the TGI (MDA-MB-435) was 29.2 µM. The TGI (SF-539 CNS) was 34.9 µM, the TGI (SW-620 colon) was 35.6 µM and the TGI (SNB-75 CNS) was 29 µM. The TGI (BT-549 breast) was 29 µM, the TGI (ACHN renal) was 30.1 µM and the TGI (HCC-2998 colon) was 32.2 µM. The TGI (T-47D breast) was 30.2 µM, the TGI (HCT-15 colon) was 28.1 µM and the TGI (COLO 205 colon) was 26.7 µM. It also gave a TGI (K-562 leukemia) of 38.6 µM, a TGI (LOX IMVI melanoma) of 35.2 µM and a TGI (MDA-N) of 27.7 µM. It also gave a TGI (KM12 colon) of 31.6 µM, a TGI (DU-145 prostate) of 29 µM and a TGI (OVCAR-5 ovarian) of 34.5 µM. The TGI (PC-3 prostate) was 30.6 µM, the TGI (HCT-116 colon) was 29.1 µM and the TGI (SK-OV-3 ovarian) was 32.8 µM. For the same compound, the TGI (M14 melanoma) was 32.1 µM, the TGI (SF-295 CNS) was 29.2 µM and the TGI (CCRF-CEM leukemia) was 50.3 µM. For the same compound, the TGI (TK-10 renal) was 32.1 µM, the TGI (UACC-257 melanoma) was 28.5 µM and the TGI (HT29 colon) was 29.8 µM. For the same compound, the TGI (UACC-62 melanoma) was 29 µM, the TGI (MALME-3M melanoma) was 35.4 µM and the TGI (MDA-MB-231 breast) was 41.9 µM. For the same compound, the TGI (U251 CNS) was 31.4 µM, the TGI (NCI-H23 lung) was 27.5 µM and the TGI (RXF 393 renal) was 31 µM. The TGI (SNB-19 CNS) was 31.3 µM, the TGI (SK-MEL-28 melanoma) was 34.9 µM and the TGI (NCI-H460 lung) was 31.7 µM. For the same compound, the TGI (IGROV1 ovarian) was 32.7 µM, the TGI (NCI-H522 lung) was 31.7 µM and the TGI (HOP-92 NSCLC) was 24.2 µM. For the same compound, the TGI (A498 renal) was 33.1 µM, the TGI (HL-60(TB) leukemia) was 45 µM and the TGI (RPMI-8226 leukemia) was 36.3 µM. The TGI (OVCAR-4 ovarian) was 31.3 µM, the TGI (OVCAR-3 ovarian) was 28 µM and the TGI (EKVX NSCLC) was 17.9 µM. It also gave a TGI (HOP-62 NSCLC) of 31.9 µM, a TGI (SR leukemia) of 46.8 µM and a TGI (CAKI-1 renal) of 30.5 µM. The TGI (HS 578T breast) was 53 µM, the TGI (SF-268 CNS) was 40.2 µM and the TGI (NCI-H226 lung) was 33.3 µM. For the same compound, the TGI (SK-MEL-5 melanoma) was 28.4 µM.
